Where two headings read alike, the source gives them in different places.

Common to all, as to type: biochemical
Assay [1] addresses T1, human Lck enzyme (Homo sapiens, UniProt P06239).
T1 construct: purchased Carna Biosciences, Inc. 08-170
Put plainly: Lck enzyme inhibitory activity (time-resolved fluorometry, biotinylated peptide phosphorylation). As to conditions: read-out: LCK_IC50. Put shortly:
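Readout pairs a europium cryptate-labelled anti-phosphotyrosine antibody with XL665-streptavidin, measured by time-resolved fluorescence. IC50 derived from percent inhibition against untreated controls.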

The target in assay [2] is T2, human Src enzyme (Homo sapiens, UniProt P12931).
T2 construct: purchased Carna Biosciences, Inc. 08-173
T2 sequence (P12931 whole entry): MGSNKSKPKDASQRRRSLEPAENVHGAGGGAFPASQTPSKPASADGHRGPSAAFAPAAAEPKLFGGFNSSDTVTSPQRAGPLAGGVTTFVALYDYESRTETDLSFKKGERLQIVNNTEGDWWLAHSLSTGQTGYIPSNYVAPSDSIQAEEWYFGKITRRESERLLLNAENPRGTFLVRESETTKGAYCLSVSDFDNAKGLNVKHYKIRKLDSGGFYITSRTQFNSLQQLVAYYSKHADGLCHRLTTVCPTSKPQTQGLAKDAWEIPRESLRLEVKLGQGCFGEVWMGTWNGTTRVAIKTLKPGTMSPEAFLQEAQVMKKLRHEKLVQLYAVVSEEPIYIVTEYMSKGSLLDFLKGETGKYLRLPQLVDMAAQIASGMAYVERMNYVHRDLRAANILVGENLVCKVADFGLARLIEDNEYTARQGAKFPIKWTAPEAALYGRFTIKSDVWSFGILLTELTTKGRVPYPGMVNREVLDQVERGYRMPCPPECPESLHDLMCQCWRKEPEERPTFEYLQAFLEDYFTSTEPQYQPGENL
Put plainly: Src enzyme inhibitory activity (time-resolved fluorometry, biotinylated peptide phosphorylation). The conditions noted are these: read-out: SRC_IC50. Put shortly: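 Compounds were tested for blocking tyrosine phosphorylation of a biotinylated peptide substrate by recombinant human Src. Phosphorylated product was quantified by time-resolved fluorometry using europium cryptate and XL665 conjugates, and IC50 was calculated against the compound-free control.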

Assay [3] concerns the target T3, human Yes1 enzyme (Homo sapiens, UniProt P07947).
T3 construct: made in house
Put plainly: Yes1 enzyme inhibitory activity (time-resolved fluorometry, biotinylated peptide phosphorylation). The conditions noted are these: read-out: YES_IC50. Put shortly:
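Inhibition was expressed against a compound-free control to give IC50, using TR-FRET read-out (Eu-cryptate anti-pTyr antibody, streptavidin-XL665).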

Where [4] appears, read: biotinylated peptide phosphorylation.

T3 sequence (P07947 whole entry): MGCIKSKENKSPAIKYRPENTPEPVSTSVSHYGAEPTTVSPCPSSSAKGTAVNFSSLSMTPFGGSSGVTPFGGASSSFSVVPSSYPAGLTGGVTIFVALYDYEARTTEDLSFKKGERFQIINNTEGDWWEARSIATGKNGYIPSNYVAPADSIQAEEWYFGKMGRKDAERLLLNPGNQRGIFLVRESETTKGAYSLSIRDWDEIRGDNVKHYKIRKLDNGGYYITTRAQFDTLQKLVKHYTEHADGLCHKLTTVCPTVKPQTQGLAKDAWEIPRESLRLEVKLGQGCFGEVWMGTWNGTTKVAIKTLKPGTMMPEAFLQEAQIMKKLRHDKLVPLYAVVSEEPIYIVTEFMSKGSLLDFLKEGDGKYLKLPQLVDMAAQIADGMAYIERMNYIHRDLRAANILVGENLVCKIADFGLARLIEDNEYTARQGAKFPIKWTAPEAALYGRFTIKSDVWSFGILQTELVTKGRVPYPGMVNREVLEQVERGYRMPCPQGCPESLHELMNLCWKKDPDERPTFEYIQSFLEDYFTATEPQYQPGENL
T1 sequence (P06239 whole entry): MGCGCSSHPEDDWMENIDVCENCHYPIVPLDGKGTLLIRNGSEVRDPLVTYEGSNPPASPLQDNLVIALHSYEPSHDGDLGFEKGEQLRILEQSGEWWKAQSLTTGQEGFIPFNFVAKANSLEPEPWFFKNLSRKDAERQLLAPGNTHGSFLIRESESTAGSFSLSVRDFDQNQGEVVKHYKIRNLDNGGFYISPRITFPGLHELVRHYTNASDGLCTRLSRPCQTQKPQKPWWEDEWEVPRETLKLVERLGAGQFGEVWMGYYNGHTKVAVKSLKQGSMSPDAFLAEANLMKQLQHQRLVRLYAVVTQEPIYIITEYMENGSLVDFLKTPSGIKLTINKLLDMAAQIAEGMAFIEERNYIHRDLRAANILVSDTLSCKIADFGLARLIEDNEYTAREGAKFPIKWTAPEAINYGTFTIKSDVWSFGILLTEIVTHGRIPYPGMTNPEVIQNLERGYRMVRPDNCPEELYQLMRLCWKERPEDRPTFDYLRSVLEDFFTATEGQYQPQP

On to `Cc1cc(Oc2cc(F)ccc2F)cc(F)c1-n1ncc(C(=O)c2cc3cc(Cl)c(NS(C)(=O)=O)cc3[nH]2)c1N` [Example 4-2-081, N-[2-[5-amino-1-[4-(2,5-difluorophenoxy)-2-fluoro-6-methylphenyl]pyrazole-4-carbonyl]-5-chloro-1H-indol-6-yl]methanesulfonamide], for which the results for the IC50 in assay [1] (setting [4]), in assay [2] (setting [4]) and in assay [3] (setting [4]) were 83 nM, 210 nM and 14 nM, respectively.
For `Cc1cc(Oc2ccccc2F)ccc1-n1ncc(C(=O)c2cc3cc(F)c(NS(=O)(=O)CC(=O)NC(C)C)cc3[nH]2)c1N` [Example 4-10-002, 2-[[2-[5-amino-1-[4-(2-fluorophenoxy)-2-methylphenyl]pyrazole-4-carbonyl]-5-fluoro-1H-indol-6-yl]sulfamoyl]-N-propan-2-ylacetamide] the same measures were 11 nM, 27 nM and 0.77 nM.
As for `Cc1cc2cc(C(=O)c3cnn(-c4ccc(Oc5ccccc5F)cc4C)c3N)[nH]c2cc1N1CCC(N2CCOCC2)CC1` [Example 5-1-077, [5-amino-1-[4-(2-fluorophenoxy)-2-methylphenyl]pyrazol-4-yl]-[5-methyl-6-(4-morpholin-4-ylpiperidin-1-yl)-1H-indol-2-yl] methanone], the IC50 was 7.1 nM in assay [1], 42 nM in assay [2] and 1 nM in assay [3].
As to `Cc1cc(Oc2c(F)cccc2F)ncc1-n1ncc(C(=O)c2cc3cc(OCC(F)F)c(C4CCN(S(=O)(=O)C5CC5)CC4)cc3[nH]2)c1N` [Example 4-17-024, [5-amino-1-[6-(2,6-difluorophenoxy)-4-methylpyridin-3-yl]pyrazol-4-yl]-[6-(1-cyclopropylsulfonylpiperidin-4-yl)-5-(2,2-difluoroethoxy)-1H-indol-2-yl]methanone], the figures for the IC50 in assay [1] (setting [4]), in assay [2] (setting [4]) and in assay [3] (setting [4]) were 25 nM, 40 nM and 11 nM, respectively.
For `Cc1cc(Oc2ccccc2F)ncc1-n1ncc(C(=O)c2cc3cc(OCC(F)F)c(N4CCC(N5CCOCC5)CC4)cc3[nH]2)c1N` [Example 4-25-026, {5-amino-1-[6-(2-fluorophenoxy)-4-methylpyridin-3-yl]pyrazol-4-yl}-[5-(2,2-difluoroethoxy)-6-(4-morpholin-4-ylpiperidin-1-yl)-1H-indol-2-yl]methanone] the same measures were 1.6 nM, 12 nM and 0.92 nM.
For the molecule `Cc1cc(Oc2ccccc2F)ccc1-n1ncc(C(=O)c2cc3cc(OCC(F)F)c(C4CCN(C(=O)OC(C)(C)C)CC4)cc3[nH]2)c1N` [Example 5-1-068, tert-Butyl 4-[2-[5-amino-1-[4-(2-fluorophenoxy)-2-methylphenyl]pyrazole-4-carbonyl]-5-(2,2-difluoroethoxy)-1H-indol-6-yl] piperidine-1-carboxylate], the IC50 in assay [1] stood at 8.4 nM; in assay [2] it was 15 nM; in assay [3] it was 5.6 nM.
With `Cc1cc(Oc2ccccc2F)ncc1-n1ncc(C(=O)c2cc3cc(F)c(NS(=O)(=O)CC(=O)N4CCCC4)cc3[nH]2)c1N` [Example 4-10-005, N-[2-[5-amino-1-[6-(2-fluorophenoxy)-4-methylpyridin-3-yl]pyrazole-4-carbonyl]-5-fluoro-1H-indol-6-yl]-2-oxo-2-pyrrolidin-1-ylethanesulfonamide], the IC50 in assay [1] (setting [4]) came out at 16 nM; in assay [2] (setting [4]), 58 nM; in assay [3] (setting [4]) it was 2.8 nM.
On to `Cc1cc2cc(C(=O)c3cnn(-c4cnc(Oc5c(F)cccc5F)cc4C)c3N)[nH]c2cc1NS(=O)(=O)C1CCCC1` [Example 5-1-317, N-[2-[5-amino-1-[6-(2,6-difluorophenoxy)-4-methylpyridin-3-yl]pyrazole-4-carbonyl]-5-methyl-1H-indol-6-yl]cyclopentanesulfonamide], for which the values for the IC50 in assay [1], in assay [2] and in assay [3] were 110 nM, 500 nM and 16 nM, respectively.
`Cc1cc(Oc2ccccc2F)cc(F)c1-n1ncc(C(=O)c2cc3cc(OC(F)F)c(NC4COC4)cc3[nH]2)c1N` [Example 4-23-011, [5-amino-1-[2-fluoro-4-(2-fluorophenoxy)-6-methylphenyl]pyrazol-4-yl]-[5-(difluoromethoxy)-6-(oxetan-3-ylamino)-1H-indol-2-yl]methanone]: the IC50 in assay [1] (setting [4]) is 19 nM; in assay [2] (setting [4]) it was 63 nM; in assay [3] (setting [4]), 7.6 nM.
In the case of `Cc1cc(-n2ncc(C(=O)c3cc4cc(OC5CCN(C(C)C)CC5)c(N5CCC(N6CCOCC6)CC5)cc4[nH]3)c2N)c(F)cc1Oc1ccccc1F` [Example 5-1-215, [5-amino-1-[2-fluoro-4-(2-fluorophenoxy)-5-methylphenyl]pyrazol-4-yl]-[6-(4-morpholin-4-ylpiperidin-1-yl)-5-(1-propan-2-ylpiperidin-4-yl)oxy-1H-indol-2-yl]methanone], the results for the IC50 in assay [1], in assay [2] and in assay [3] were 6 nM, 82 nM and 0.81 nM, respectively.
In the case of `Cc1cc(Oc2c(F)cccc2F)ncc1-n1ncc(C(=O)c2cc3cc(F)c(NS(=O)(=O)c4c(F)cc(F)cc4F)cc3[nH]2)c1N` [Example 5-1-567, N-[2-[5-amino-1-[6-(2,6-difluorophenoxy)-4-methylpyridin-3-yl]pyrazole-4-carbonyl]-5-fluoro-1H-indol-6-yl]-2,4,6-trifluorobenzenesulfonamide], the IC50 in assay [1] (setting [4]) was 610 nM; in assay [2] (setting [4]), 1200 nM; in assay [3] (setting [4]), 19 nM.
With `Cc1cc2cc(C(=O)c3cnn(-c4cnc(Oc5c(F)cccc5F)cc4C)c3N)[nH]c2cc1C1CCN(S(=O)(=O)C2CC2)CC1` [Example 5-1-144, [5-amino-1-[6-(2,6-difluorophenoxy)-4-methylpyridin-3-yl]pyrazol-4-yl]-[6-(1-cyclopropylsulfonylpiperidin-4-yl)-5-methyl-1H-indol-2-yl]methanone], the figures for the IC50 in assay [1], in assay [2] and in assay [3] were 76 nM, 81 nM and 5.7 nM, respectively.
Take `Cc1cc(Oc2ccccc2F)ccc1-n1ncc(C(=O)c2cc3cc(OCC(F)F)c(C4CCN(S(=O)(=O)C5CC5)CC4)cc3[nH]2)c1N` [Example 4-17-016, [5-amino-1-[4-(2-fluorophenoxy)-2-methylphenyl]pyrazol-4-yl]-[6-(1-cyclopropylsulfonylpiperidin-4-yl)-5-(2,2-difluoroethoxy)-1H-indol-2-yl]methanone]: the figures for the IC50 in assay [1] (setting [4]), in assay [2] (setting [4]) and in assay [3] (setting [4]) were 12 nM, 15 nM and 6.4 nM, respectively.
For `Cc1cc(Oc2cccc(F)c2)ncc1-n1ncc(C(=O)c2cc3cc(F)c(NS(=O)(=O)CCCF)cc3[nH]2)c1N` [Example 5-1-059, N-[2-[5-amino-1-[6-(3-fluorophenoxy)-4-methylpyridin-3-yl]pyrazole-4-carbonyl]-5-fluoro-1H-indol-6-yl]-3-fluoropropane-1-sulfonamide], the IC50 in assay [1] stood at 33 nM; in assay [2] it was 130 nM; in assay [3], 3.4 nM.
Consider `Cc1cc(Oc2ccccc2F)ccc1-n1ncc(C(=O)c2cc3cc(OCC(F)F)c(NS(C)(=O)=O)cc3[nH]2)c1N` [Example 4-24-021, N-[2-[5-amino-1-[4-(2-fluorophenoxy)-2-methylphenyl]pyrazole-4-carbonyl]-5-(2,2-difluoroethoxy)-1H-indol-6-yl]methanesulfonamide], for which the results for the IC50 in assay [1] (setting [4]), in assay [2] (setting [4]) and in assay [3] (setting [4]) were 9.7 nM, 22 nM and 1.7 nM, respectively.
In the same order, the values of `Cc1cc(Oc2cccc(Cl)c2)cc(F)c1-n1ncc(C(=O)c2cc3cc(F)c(NS(=O)(=O)C4CC4)cc3[nH]2)c1N` [Example 4-7-012, N-[2-[5-amino-1-[4-(3-chlorophenoxy)-2-fluoro-6-methylphenyl]pyrazole-4-carbonyl]-5-fluoro-1H-indol-6-yl]cyclopropanesulfonamide] are 160 nM, 330 nM and 14 nM.
Regarding `Cc1cc2cc(C(=O)c3cnn(-c4cnc(Oc5c(F)cccc5F)cc4C)c3N)[nH]c2cc1N1C(=O)NC2(CCN(C3COC3)C2)C1=O` (stereo not drawn) [Example 5-1-362, 3-[2-[5-amino-1-[6-(2,6-difluorophenoxy)-4-methylpyridin-3-yl]pyrazole-4-carbonyl]-5-methyl-1H-indol-6-yl]-7-(oxetan-3-yl)-1,3,7-triazaspiro[4.4]nonane-2,4-dione], the IC50 was 6.5 nM in assay [1], 29 nM in assay [2] and 2 nM in assay [3].
As for `Cc1cc(-n2ncc(C(=O)c3cc4cc(N5CCOCC5)c(Br)cc4[nH]3)c2N)ccc1Oc1ccccc1F` [Example 5-1-151, [5-amino-1-[4-(2-fluorophenoxy)-3-methylphenyl]pyrazol-4-yl]-(6-bromo-5-morpholin-4-yl-1H-indol-2-yl)methanone], the values for the IC50 in assay [1], in assay [2] and in assay [3] were 80 nM, 600 nM and 2.9 nM, respectively.
For `Cc1cc(Oc2c(F)cccc2F)ncc1-n1ncc(C(=O)c2cc3cc(OC4CCN(C(C)C)CC4)c(-c4cncnc4)cc3[nH]2)c1N` [Example 5-1-241, [5-amino-1-[6-(2,6-difluorophenoxy)-4-methylpyridin-3-yl]pyrazol-4-yl]-[5-(1-propan-2-ylpiperidin-4-yl)oxy-6-pyrimidin-5-yl-1H-indol-2-yl]methanone] the same measures were 6.1 nM, 5.5 nM and 1.8 nM.
As for `Cc1cnc(F)c(S(=O)(=O)Nc2cc3[nH]c(C(=O)c4cnn(-c5ccc(Oc6ccccc6F)cc5C)c4N)cc3cc2C)c1` [Example 5-1-520, N-[2-[5-amino-1-[4-(2-fluorophenoxy)-2-methylphenyl]pyrazole-4-carbonyl]-5-methyl-1H-indol-5-yl]-2-fluoro-5-methylpyridine-3-sulfonamide], the IC50 stood at 67 nM in assay [1] (setting [4]), 270 nM in assay [2] (setting [4]) and 2.7 nM in assay [3] (setting [4]).

For the origin of these results see patent publication US10479780B2, “Aminopyrazole derivatives” (Chugai Seiyaku Kabushiki Kaisha, priority 2015, dated 2019).
